Test results as given in ChEMBL document CHEMBL1154198, “Chemical genetics of Plasmodium falciparum” (Nature, 2010).

What was measured:
Plasmodium falciparum [1] = assay: ST_JUDE: Plasmodium falciparum K1 EC50 (uM) as measured by SYBR green dye; type: functional, organism-based
Plasmodium falciparum [2] = assay: ST_JUDE: Plasmodium falciparum 3D7 EC50 (uM) as measured by SYBR green dye; type: functional, organism-based

Compound	EC50 (Plasmodium falciparum [1]) [µM]	EC50 (Plasmodium falciparum [2]) [µM]
CC(=O)Nc1ccc(Nc2c3ccccc3nc3ccccc23)cc1	1.37	2.69
CCCCCOc1ccc(NC2=C(N3CCCC3)C(=O)c3ccccc3C2=O)cc1	1.92	> 15
COc1ccc(-c2nonc2NC(=O)c2ccc(C(C)(C)C)cc2)cc1OC	1.17	1.06
Cc1ccc(C2CC(c3cccs3)=NN2C(=O)c2ccc(Br)o2)cc1 (configuration not stated)	> 15	0.532
Cc1cc(N2CCN(C)CC2)nc2ccc(NC(=O)c3cccc(N(C)C)c3)cc12	6.32	0.62
CC(=O)N(C)C1=C(N2CCOCC2)C(=O)c2ccccc2C1=O	4.78	2.72
CN1CCN(c2ccc(-c3cccc(NC(=O)c4cccc([N+](=O)[O-])c4)c3)nn2)CC1	3.83	> 15
Oc1c2c(nc3cc(-c4ccc(Br)cc4)nn13)CCCC2	0.632	> 15
CN1CCN(c2cc(N3CCN(C)CC3)c([N+](=O)[O-])cc2C2Nc3ccc4ccccc4c3C3=C2C(=O)CC(C)(C)C3)CC1 (configuration not stated)	> 15	3.44
CCCOc1ccc(-c2[nH]ncc2Oc2ccccc2)c(O)c1	2.49	4.7
CCc1cccc(NC(=O)C2c3ccccc3C(=O)N(C3CCCC3)C2c2cccs2)c1 (configuration not stated)	2.01	2.29
CCOC(=O)C1=C(c2ccccc2)N=C(S)NC1c1cc(Cl)ccc1OC (configuration not stated)	> 15	> 15
CN1CCN(CCCNC(=O)c2ccc3c(c2)sc2nc(-c4ccccc4)cn23)CC1	9.15	4.06
COc1ccc(CN2CCN(Cc3cc(Br)ccc3O)CC2)cc1OC	6.31	4.91
O=Cc1ccc2noc(-c3ccc(Cl)cc3)c2c1	> 15	> 15
COc1ccc(C2C(C(=O)Nc3ccc(OC)cc3OC)c3ccccc3C(=O)N2C)cc1 (configuration not stated)	4.82	4.16
COc1ccc(/C=C(\C#N)c2nn(CCO)c(N)c2C#N)cc1	> 15	> 15
Cc1cc(O)nc(-n2nc(C)cc2NC(=O)c2cccc(C(F)(F)F)c2)n1	1.5	> 15
CC(C)(C)c1ccc2c(c1)CN(Cc1ccccc1)CO2	0.0523	0.239
Cc1cc(N2CCN(C)CC2)nc2ccc(NC(=S)NCCCN3CCc4ccccc4C3)cc12	6.68	1.48
CCCC(=O)NC(c1ccc(Cl)cc1)c1c(OC(C)=O)ccc2ccccc12 (configuration not stated)	9.29	6.92
Cc1cc(C)c2nc(C)cc(Nc3cccc(Cl)c3)c2c1	3.83	0.812

Compound	EC50 (Plasmodium falciparum [1]) [µM]	EC50 (Plasmodium falciparum [2]) [µM]
CCCCn1c(N)c(C#N)c2nc3ccccc3nc21	6.01	1.52
Cc1cc(C)c2sc(N(Cc3cccnc3)C(=O)c3ccc(C#N)cc3)nc2c1	3.94	5.77
CCOc1ccc(NC2=C/C(=N/S(=O)(=O)c3ccc(OC)cc3)c3ccccc3C2=O)cc1	0.155	0.352
COc1ccc(C2CC(=O)C3=C(C2)NC(=O)CC3c2ccc(O)cc2)cc1OC (configuration not stated)	0.977	1.66
CCOC(=O)c1c(CSC(=N)N)n(-c2ccccc2)c2cc(Br)c(OC(C)=O)cc12	2.9	0.749
COc1ccc(Cl)c2sc(N(Cc3cccnc3)C(=O)c3ccc(C(C)=O)cc3)nc12	3.86	4.06
Cc1ccc(Nc2cc(C)nc(Nc3ccc(NS(=O)(=O)c4ccc(F)cc4)cc3)n2)cc1	7.04	0.746
COc1ccc(N2CCN(C(CNC(=O)CC(C)(C)C)c3ccc4c(c3)OCO4)CC2)cc1 (configuration not stated)	2.01	4.28
O=C(CN(Cc1ccc(Cl)cc1)S(=O)(=O)c1ccccc1)N1CCN(c2ccccc2F)CC1	2.13	2.91
CCN(CC)c1cc(C)c2cc(NC(=O)c3cccc(OC)c3)ccc2n1	> 15	4.77
CCC1CCCCN1S(=O)(=O)c1ccc(C(=O)NNc2nc3c(C)cccc3s2)cc1 (configuration not stated)	> 15	> 15
CCOC(=O)N1CCC(NC(=O)Nc2cc(C(F)(F)F)cc(C(F)(F)F)c2)CC1	1.29	0.992
CCOc1ccccc1N(CC(=O)Nc1ccccc1C(C)C)S(=O)(=O)c1ccccc1	> 15	> 15
C=CCN1C=CC(=Cc2ccc3cc(C)ccc3[n+]2CC)C=C1	0.55	1.4
CCOc1cc(/C=C/c2ccc3cccc(O)c3n2)ccc1O	> 15	> 15
COc1ccc(C2NCCc3c2[nH]c2ccccc32)cc1CN1CCN(c2ccc([N+](=O)[O-])cc2)CC1 (configuration not stated)	3.81	3.65
CCOc1cccc(C(=O)Nc2nonc2-c2ccc(OCC)c(OCC)c2)c1	0.217	0.169
Cc1ccc(N(CC(=O)NCCSc2ccc(Cl)cc2)S(=O)(=O)c2ccc(F)cc2)cc1	> 15	> 15
CC(C)(C)c1ccc(C(=O)Nc2nc3c(s2)CN(Cc2ccccc2)CC3)cc1	> 15	> 15
CCCOC(=O)c1cccc(NC(=O)C23CCC(C)(C(=O)O2)C3(C)C)c1 (configuration not stated)	> 15	> 15
CCOC(=O)c1cc(NC(=O)CSc2nc3ccccc3[nH]2)ccc1Cl	3.22	2.17
COc1ccc(O)c(CN2CCN(Cc3ccc(C)cc3)CC2)c1	0.988	1.62

Compound	EC50 (Plasmodium falciparum [1]) [µM]	EC50 (Plasmodium falciparum [2]) [µM]
CCOc1ccc2nc(C)cc(Nc3ccc4c(c3)OCCO4)c2c1	9.41	> 15
CCCCc1ccc2nc(C)c(CN3CCC(C)CC3)c(O)c2c1	> 15	> 15
CCOc1cc(C2Nc3cccc4cccc(c34)N2)ccc1O	> 15	> 15
CSc1ccccc1C(=O)Nc1nc(-c2ccccn2)cs1	2.04	6.82
C=CC[n+]1c(/C=C2\C=CC=CN2CC)ccc2cc(C)ccc21	2.53	2.56
C#CC[n+]1ccn2cccc2c1C	0.607	1.08
CCOCCCNC(=O)c1cc2c(-c3cccc(OC)c3)nn(C)c2s1	> 15	> 15
C=C(C)CNc1nncc(-c2ccccc2C)n1	> 15	> 15
Cc1cc(C)c2ccc(N)nc2c1O	4.81	3.86
CCCCOC(=O)c1c(N)n(-c2ccccc2OC)c2nc3ccccc3nc12	> 15	3.83
CCOc1ccccc1C(=O)NCCc1csc(-c2ccc(OC)cc2)n1	7.53	> 15
CCN1C=CC=C/C1=C/c1ccc2cc(C)ccc2[n+]1CC	0.453	0.543
CCCC(=O)NC(c1ccc(C(C)C)cc1)c1cc(Cl)c2cccnc2c1O (configuration not stated)	> 15	> 15
CCOC(=O)c1ccc2nc(C)cc(Nc3ccc(C)c(Cl)c3)c2c1	> 15	1.9
COc1cc(/C=C2/C(=O)NC(=O)N(c3ccc(Cl)cc3)C2=O)cc(Br)c1OC	> 15	> 15
CCCN1C(=O)c2[nH]nc(-c3c(C)cc(C)cc3O)c2C1c1ccc(OC)cc1 (configuration not stated)	2.02	3.36
Cc1ccc(NC(=O)C2c3ccccc3C(=O)N(C3CCCC3)C2c2cccs2)cc1 (configuration not stated)	1.44	> 15
C=C(C)CCC(C)N1CCC(n2nccc2NC(=O)Nc2ccccc2Cl)CC1 (configuration not stated)	> 15	3.7
O=C(NCCN1CCC(Cc2ccccc2)CC1)c1cc(-c2cccnc2)nc2ccccc12	0.942	1.13
CCOCC(=O)Nc1cc(C(F)(F)F)ccc1Oc1cccc(Br)c1	> 15	0.83
COc1cccc(-c2nc3cc(NC(=O)c4cccc(Cl)c4Cl)ccc3o2)c1	> 15	> 15
CCOC(=O)c1cnc2c(C)cc(C)cc2c1NCc1cccnc1	6.18	4.77

Compound	EC50 (Plasmodium falciparum [1]) [µM]	EC50 (Plasmodium falciparum [2]) [µM]
Clc1ccccc1Nc1nc(NCc2ccccc2)c2ccccc2n1	4.17	1.54
CO/C(O)=C1\C(C)=NC2=C(C(=O)CC(c3ccc(OC)c(OC)c3)C2)C1c1cccc(C)c1 (configuration not stated)	3.86	3.69
CC(=O)N(C1=C(NCCO)C(=O)c2ccccc2C1=O)c1cccc(Br)c1	0.0286	0.0171
CC(=O)NC(c1ccc(Cl)cc1Cl)c1ccc2cccnc2c1O (configuration not stated)	3.01	3.22
CCCOc1ccc(-c2nonc2NC(=O)c2cccc(C)c2)cc1OCCC	1.05	> 15
COc1cccc(NC(=O)C2c3ccccc3C(=O)N(C3CCCC3)C2c2cccs2)c1 (configuration not stated)	0.474	0.45
C/C(=N/NC(N)=S)C1C(=O)c2ccccc2C1=O	> 15	> 15
CCCN(CCC)Cc1c(O)ccc2c(=O)c(Oc3ccc(OC)cc3)c(C(F)(F)F)oc12	2.95	> 15
CCCCN(C)CCNC(=O)c1cc2c(-c3ccccc3F)nn(C)c2s1	> 15	1.62
Cc1ccc2[nH]c(-c3cccc(-c4nc5cc(C)ccc5[nH]4)n3)nc2c1	7.6	3.23
Cc1cc(C)c2nc(NNC(=O)c3ccc(S(=O)(=O)N(C)C)cc3)sc2c1	4.88	6.63
Cc1cccc(C(=O)ONC(=N)Cc2cccc3ccccc23)c1	2.63	4.7
O=C(Nc1ccc(Cl)cc1C(=O)Nc1cccc(C(F)(F)F)c1)c1ccco1	> 15	> 15
COc1ccc(OC)c(C2CC(=O)C3=C(C2)NC(=O)CC3c2ccc([N+](=O)[O-])cc2)c1 (configuration not stated)	1.53	> 15
CC(=O)N1CCc2c(sc(NC(=O)c3cc([N+](=O)[O-])ccc3Cl)c2C#N)C1	1.32	4.07
O=C(Nc1ccc(Cl)cc1)Nc1cc(OCC(F)(F)F)cc(OCC(F)(F)F)c1	0.466	1.36
Cc1cccc(C)c1OCC(=O)N(Cc1ccc(C(C)C)cc1)Cc1ccco1	> 15	4.79
CCOc1cc(-c2nc(-c3ccc(OC)cc3)c(-c3ccccc3)[nH]2)ccc1O	2.25	1.48
CCCC(=O)NC(c1ccc(N(CC)CC)cc1)c1cc(Cl)c2cccnc2c1O (configuration not stated)	1.14	0.844
CN1CCN(c2nc(Nc3ccc(O)cc3)nc3ccccc23)CC1	6.2	2.75
